# Key:
# VZV strain Ellen = assay: VZV Antiviral (ELISA) Assay in human foreskin fibroblast cells; type: cell-based, varicella-zoster virus; settings: for IC50: read-out: IC50 (ug/ml) VZV
# How it was run: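 HFF cells infected overnight with VZV Ellen at MOI <0.1, mixed with uninfected cells, were seeded with compound and grown 3 days at 37° C in DMEM/2% FBS. Viral glycoprotein II was detected by ELISA with β-galactosidase-linked secondary; IC50 from fluorescence versus no-compound wells.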
# HSV-1 = assay: HSV Antiviral (ELISA) Assay in Vero cells; type: cell-based, herpes simplex virus type 1; settings: HSV-1, Vero cells; for IC50: Human alphaherpesvirus 1, read-out: IC50 (ug/ml) HSV
# How it was run: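 Viral replication was quantified by cell-fixed ELISA for HSV glycoprotein D, using a β-galactosidase reporter and fluorogenic umbelliferyl substrate, about 24 h after HSV-1 infection (MOI 0.006) of Vero cells. Compounds, at several concentrations, were added 30 min pre-infection. IC50 was derived from fluorescence relative to the compound-free signal.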
# [1] = tested on: HCMV recombinant mutant virus (RV145); assay: microbe, parasite or virus in culture; type: cell-based, human cytomegalovirus; settings: for IC50: Human betaherpesvirus 5, read-out: IC50 ug/ml HCMV, HCMV
# How it was run: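 Human foreskin fibroblasts infected with HCMV RV145 carrying a viral-promoter-driven beta-glucuronidase gene, in presence of compound. At 96 h post-infection, lysates assayed for beta-glucuronidase with colorimetric or fluorogenic glucuronide substrate as replication read-out. IC50 estimated from varying inhibitor amounts.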
# [2] = Human alphaherpesvirus 3, Fibroblast
compound,measurement,setting,value
O=C(Nc1ccc(NC(=S)Nc2ccc(Cl)c(C(F)(F)F)c2)cc1)c1ccccc1F [Example 244],IC50 (ug/ml) VZV,VZV strain Ellen,>10 µg/mL
same,% inhibition 10 ug/ml VZV,VZV strain Ellen,18%
same,IC50 (ug/ml) HSV,HSV-1,>10 µg/mL
same,IC50 ug/ml HCMV,[1],>10 µg/mL
COc1cc(OC)c(NC(=S)Nc2ccc(NC(=O)c3ccccc3NC(C)=O)cc2)cc1Cl [Example 189],IC50 (ug/ml) VZV,VZV strain Ellen,>10 µg/mL
same,% inhibition 10 ug/ml VZV,VZV strain Ellen,59%
same,IC50 (ug/ml) HSV,HSV-1,2.5 µg/mL
same,IC50 ug/ml HCMV,[1],>10 µg/mL
O=C(Nc1ccc(NC(=S)Nc2cccc(O)c2)cc1)c1ccccc1F [Example 475],IC50 (ug/ml) VZV,VZV strain Ellen,>10 µg/mL
same,% inhibition 10 ug/ml VZV,VZV strain Ellen,28%
same,IC50 (ug/ml) HSV,HSV-1,5 µg/mL
same,IC50 ug/ml HCMV,[1],>10 µg/mL
CC(NC(=S)Nc1ccc(NC(=O)c2ccccc2F)cc1)c1ccccc1F (centres unmarked) [Example 778],IC50,VZV strain Ellen; [2],3 µg/mL
same,IC50,HSV-1,> 10 µg/mL
same,IC50,[1],0.8 µg/mL
COc1cccc(C(=O)Nc2ccc(NC(=S)Nc3ccc(N(C)C4CCCCC4)c(Cl)c3)cc2)c1 [Example 250],IC50 (ug/ml) VZV,VZV strain Ellen,>10 µg/mL
same,% inhibition 10 ug/ml VZV,VZV strain Ellen,42%
same,IC50 (ug/ml) HSV,HSV-1,>10 µg/mL
same,IC50 ug/ml HCMV,[1],>10 µg/mL
O=C(CN1CCCC1)Nc1ccc(NC(=S)Nc2ccc(NC(=O)c3ccccc3F)cc2)cc1Cl [Example 417],IC50 (ug/ml) VZV,VZV strain Ellen,>10 µg/mL
same,% inhibition 10 ug/ml VZV,VZV strain Ellen,15%
same,IC50 (ug/ml) HSV,HSV-1,6 µg/mL
same,IC50 ug/ml HCMV,[1],>10 µg/mL
CN(C)c1ccc(Cl)cc1NC(=S)Nc1ccc(NC(=O)c2ccccc2F)cc1 [Example 490],IC50 (ug/ml) VZV,VZV strain Ellen,>10 µg/mL
same,% inhibition 10 ug/ml VZV,VZV strain Ellen,68%
same,IC50 (ug/ml) HSV,HSV-1,1 µg/mL
same,IC50 ug/ml HCMV,[1],2.5 µg/mL
COc1ccc(C(=O)Nc2ccc(NC(=S)Nc3cc(Cl)c(OC)cc3OC)cc2)cc1 [Example 121],IC50 (ug/ml) VZV,VZV strain Ellen,>10 µg/mL
same,% inhibition 10 ug/ml VZV,VZV strain Ellen,0%
same,IC50 (ug/ml) HSV,HSV-1,0.3 µg/mL
same,IC50 ug/ml HCMV,[1],6 µg/mL
COc1cc(OC)c(NC(=S)Nc2ccc(NC(=O)c3cccc(OCCN4CCOCC4)c3)cc2)cc1Cl [Example 258],IC50 (ug/ml) VZV,VZV strain Ellen,1.5 µg/mL
same,% inhibition 10 ug/ml VZV,VZV strain Ellen,92%
same,IC50 (ug/ml) HSV,HSV-1,1.5 µg/mL
same,IC50 ug/ml HCMV,[1],5 µg/mL
"CC(NC(=S)Nc1ccc(NC(=O)c2nccc3ccccc23)cc1)c1ccc(F)cc1 (centres unmarked) [Example 976, Isoquinoline-1-carboxylic acid (4-{3-[1-(4-fluoro-phenyl)-ethyl]-thioureido}-phenyl)-amide]",IC50,VZV strain Ellen; [2],0.04 µg/mL
same,IC50,HSV-1,> 10 µg/mL
same,IC50 ug/ml HCMV,[1],>10 µg/mL
CC(NC(=S)Nc1ccc(NC(=O)c2ccccc2F)cc1)c1ccc(Cl)cc1 (centres unmarked) [Example 781],IC50 (ug/ml) VZV,VZV strain Ellen,0.6 µg/mL
same,IC50 (ug/ml) HSV,HSV-1,>10 µg/mL
same,IC50 ug/ml HCMV,[1],1.8 µg/mL
"O=C(Nc1ccc(NC(=S)Nc2ccc(Cl)c(Cl)c2)cc1)c1ccccc1F [Example 912, N-{4-[3-(3,4-Dichloro-phenyl)-thioureido]-phenyl}-2-fluoro-benzamide]",inhibition at 10 µg/mL,"VZV strain Ellen; Human alphaherpesvirus 3, Fibroblast, read-out: % inhibition 10 ug/ml VZV, 10 ug/ml",21%
same,IC50,VZV strain Ellen; [2],> 10 µg/mL
same,IC50,HSV-1,8 µg/mL
same,IC50,[1],> 10 µg/mL
Nc1c(Cl)cccc1NC(=S)Nc1ccc(NC(=O)c2c(F)cccc2F)cc1 [Example 465],IC50 (ug/ml) VZV,VZV strain Ellen,>10 µg/mL
same,% inhibition 10 ug/ml VZV,VZV strain Ellen,31%
same,IC50 (ug/ml) HSV,HSV-1,>10 µg/mL
same,IC50 ug/ml HCMV,[1],>10 µg/mL
COc1cc(OC)c(NC(=S)Nc2ccc(NC(=O)c3ccccc3OC(C)=O)cc2)cc1Cl [Example 115],IC50 (ug/ml) VZV,VZV strain Ellen,4 µg/mL
same,% inhibition 10 ug/ml VZV,VZV strain Ellen,98%
same,IC50 (ug/ml) HSV,HSV-1,4 µg/mL
same,IC50 ug/ml HCMV,[1],8 µg/mL
COc1cc(OC)c(NC(=S)Nc2ccc(NC(=O)c3cccc4c3OCO4)cc2)cc1Cl [Example 255],IC50 (ug/ml) VZV,VZV strain Ellen,>10 µg/mL
same,% inhibition 10 ug/ml VZV,VZV strain Ellen,0%
same,IC50 (ug/ml) HSV,HSV-1,1.2 µg/mL
same,IC50 ug/ml HCMV,[1],>10 µg/mL
Cc1ccc(NC(=S)Nc2ccc(NC(=O)c3ccccc3C)cc2)cc1Cl [Example 234],IC50 (ug/ml) VZV,VZV strain Ellen,>10 µg/mL
same,% inhibition 10 ug/ml VZV,VZV strain Ellen,68%
same,IC50 (ug/ml) HSV,HSV-1,0.2 µg/mL
same,IC50 ug/ml HCMV,[1],1 µg/mL
COc1cc(OC)c(NC(=S)Nc2ccc(NC(=O)c3cccc(C(=O)O)c3)cc2)cc1Cl [Example 209],IC50 (ug/ml) VZV,VZV strain Ellen,>10 µg/mL
same,% inhibition 10 ug/ml VZV,VZV strain Ellen,22%
same,IC50 (ug/ml) HSV,HSV-1,>50 µg/mL
same,IC50 ug/ml HCMV,[1],>50 µg/mL
CC1CCCCN1CC(=O)Nc1ccc(NC(=S)Nc2ccc(NC(=O)c3ccccc3F)cc2)cc1Cl (centres unmarked) [Example 425],IC50 (ug/ml) VZV,VZV strain Ellen,>7.5 µg/mL
same,% inhibition 10 ug/ml VZV,VZV strain Ellen,103%
same,IC50 (ug/ml) HSV,HSV-1,3 µg/mL
same,IC50 ug/ml HCMV,[1],0.5 µg/mL
COc1cc(OC)c(NC(=S)Nc2ccc(NC(=O)c3ccccc3C(=O)O)cc2)cc1Cl [Example 184],IC50 (ug/ml) VZV,VZV strain Ellen,>10 µg/mL
same,IC50 (ug/ml) HSV,HSV-1,>50 µg/mL
same,IC50 ug/ml HCMV,[1],>50 µg/mL
COc1cc(OC)c(NC(=S)Nc2ccc(NC(=O)c3ccccc3SC)cc2)cc1Cl [Example 194],IC50 (ug/ml) VZV,VZV strain Ellen,>10 µg/mL
same,% inhibition 10 ug/ml VZV,VZV strain Ellen,45%
same,IC50 (ug/ml) HSV,HSV-1,1.5 µg/mL
same,IC50 ug/ml HCMV,[1],>10 µg/mL
"CC(NC(=S)Nc1ccc(NC(=O)c2ccccc2F)cc1)c1cc2ccccc2o1 (centres unmarked) [Example 1002, N-{4-[3-(1-Benzofuran-2-yl-ethyl)-thioureid]-phenyl}-2-fluoro-benzamide]",IC50 (ug/ml) VZV,VZV strain Ellen,0.08 µg/mL
same,IC50 (ug/ml) HSV,HSV-1,>10 µg/mL
same,IC50 ug/ml HCMV,[1],2.1 µg/mL
O=C(Nc1ccc(NC(=S)Nc2cc(Br)cc(C(F)(F)F)c2)cc1)c1ccccc1F [Example 531],IC50 (ug/ml) VZV,VZV strain Ellen,6 µg/mL
same,IC50 (ug/ml) HSV,HSV-1,>10 µg/mL
same,IC50 ug/ml HCMV,[1],5 µg/mL
CC(NC(=S)Nc1ccc(NC(=O)c2ccccc2F)cc1)c1ccc(C#N)cc1 (centres unmarked) [Example 792],IC50,VZV strain Ellen; [2],> 7.5 µg/mL
same,IC50,HSV-1,> 10 µg/mL
same,IC50,[1],5 µg/mL
COc1cc(OC)c(NC(=S)Nc2ccc(NC(=O)c3ccccc3OC)cc2)cc1Cl [Example 119],IC50 (ug/ml) VZV,VZV strain Ellen,>10 µg/mL
same,% inhibition 10 ug/ml VZV,VZV strain Ellen,1%
same,IC50 (ug/ml) HSV,HSV-1,0.5 µg/mL
same,IC50 ug/ml HCMV,[1],> 10 µg/mL
Cc1ccc(NC(=S)Nc2ccc(NC(=O)c3ccccc3F)c(C)c2)cc1Cl [Example 395],IC50 (ug/ml) VZV,VZV strain Ellen,>10 µg/mL
same,% inhibition 10 ug/ml VZV,VZV strain Ellen,64%
same,IC50 (ug/ml) HSV,HSV-1,0.2 µg/mL
same,IC50 ug/ml HCMV,[1],3 µg/mL
N-{4-[3-(3-Butylsulfonyl-phenyl)-thioureido]-phenyl}-2-fluoro-benzamide [Example 966],IC50 (ug/ml) VZV,VZV strain Ellen,8 µg/mL
same,% inhibition 10 ug/ml VZV,VZV strain Ellen,95%
same,IC50 (ug/ml) HSV,HSV-1,7 µg/mL
same,IC50 ug/ml HCMV,[1],2.5 µg/mL
O=C(CN1CCCCC1)Nc1ccc(NC(=S)Nc2ccc(NC(=O)c3ccccc3F)cc2)cc1Cl [Example 364],IC50 (ug/ml) VZV,VZV strain Ellen,>15 µg/mL
same,% inhibition 10 ug/ml VZV,VZV strain Ellen,73%
same,IC50 (ug/ml) HSV,HSV-1,>10 µg/mL
same,IC50 ug/ml HCMV,[1],>10 µg/mL
O=C(Nc1ccc(NC(=S)Nc2ccc(SC3CCCCC3)c(Cl)c2)cc1)c1ccccc1F [Example 357],IC50 (ug/ml) VZV,VZV strain Ellen,40 µg/mL
same,% inhibition 10 ug/ml VZV,VZV strain Ellen,44%
same,IC50 (ug/ml) HSV,HSV-1,>10 µg/mL
same,IC50 ug/ml HCMV,[1],9 µg/mL
O=C(Nc1ccc(NC(=S)NCc2cccc(Cl)c2)cc1)c1ccccc1F [Example 511],IC50 (ug/ml) VZV,VZV strain Ellen,>10 µg/mL
same,% inhibition 10 ug/ml VZV,VZV strain Ellen,10%
same,IC50 (ug/ml) HSV,HSV-1,>10 µg/mL
same,IC50 ug/ml HCMV,[1],>10 µg/mL
COc1cc(OC)c(NC(=S)Nc2ccc(NC(=O)c3ccccc3Cl)cc2)cc1Cl [Example 141],IC50 (ug/ml) VZV,VZV strain Ellen,>10 µg/mL
same,% inhibition 10 ug/ml VZV,VZV strain Ellen,40%
same,IC50 (ug/ml) HSV,HSV-1,0.25 µg/mL
same,IC50 ug/ml HCMV,[1],6 µg/mL
CC(NC(=S)Nc1ccc(NC(=O)c2ccccc2F)cc1)c1ccc2ccccc2c1 (centres unmarked) [Example 799],IC50 (ug/ml) VZV,VZV strain Ellen,>7.5 µg/mL
same,IC50 (ug/ml) HSV,HSV-1,>10 µg/mL
same,IC50 ug/ml HCMV,[1],1.7 µg/mL
